The target of assay [1] is T1, KRAS G12C 1-169, his-tagged protein, GDP-loaded (Homo sapiens, UniProt P01116, G12C).
T1 construct: KRAS G12C 1-169, his-tagged protein, GDP-loaded
In words: Biochemical assay: covalent binding to KRAS G12C analyzed by mass spectrometry.

Assay [2] has as its system H358 cells (KRAS G12C). The experiment in a line: Western blots of downstream KRAS signaling nodes and apoptosis markers in H358 cells. It counts as cell-based. The conditions noted are these: for inhibition of downstream KRAS signaling nodes (Western blot) / apoptosis based on cleaved PARP levels: H358 cells; for inhibition of downstream KRAS signaling nodes (Western blot): alone; for apoptosis based on cleaved PARP levels: erlotinib 5 μM; for G1 arrest and induction of apoptosis: H358 cells (FIG. 9, left panel). As for the experimental part:
FIG. 2 depicts western blot analysis of downstream targets of K-Ras signaling. […] Paclitaxel was used as a positive control. The western blots were probed with antibodies for p-AKT, p-ERK, total ERK, p-RSK, p-S6 and cleaved PARP. Cleaved PARP is indicative of apoptosis. B) A549 cells that express the G12S isoform of K-Ras were used a control for K-Ras G12C inhibitor specificity. A549 cells were treated as in A).
Western blots were used to analyze downstream KRAS signaling nodes (AKT, ERK, RSK, S6) and a marker of apoptosis (cleaved PARP).
Western blots were used to analyze downstream KRAS signaling nodes (AKT, ERK, RSK, S6) and a marker of apoptosis (cleaved PARP). […] Taxol (paclitaxel) was used as a positive control.
Western blots were used to analyze downstream KRAS signaling nodes (AKT, ERK, RSK, S6) and a marker of apoptosis (cleaved PARP). […] Caspase activity was measured using a standard caspase activity luminescence assay (Capase-Glo, Promega).
In general terms: A western blot detects proteins with antibodies after separation by electrophoresis.

Assay [3] relates to H358 cells. The experiment in a line: Flow cytometry, cell cycle progression and apoptosis (sub-diploid cells). It counts as cell-based. The conditions noted are these: single agents. Here is the method: B) The average apoptosis response of NCI-H358, NCI-H1792, NCI-H2122, and SW1573 cell lines generated by flow cytometry as described in A).
(§1) Apoptosis was measured via flow cytometry. Gated populations=% of subdiploid apoptotic cells.
as §1
FIG. 7 depicts apoptosis in NCI-H358 cells treated with II-64 (10 μM), SN38 (5 nM), or a combination treatment (II-64+SN38). […] Apoptosis was measured via flow cytometry. Gated populations=% of subdiploid apoptotic cells.
Flow cytometry was used to evaluate KRAS G12C inhibitor combination treatments.
Next, flow cytometry was used to evaluate a KRAS G12C inhibitor in combination with the chemotherapeutic agents paclitaxel or docetaxel.
In general terms: Flow cytometry measures light scatter and fluorescence of single cells or particles in a stream.

The test system of assay [4] is mutant cell lines (NCI-H23, SW1573). The experiment in a line: Western blots, KRAS G12C inhibitor with ruxolitinib or momelotinib. It counts as cell-based. To be noted: I-272 1 μM; ruxolitinib or momelotinib 1 and 5 μM. As for the experimental part:
Western blots were used to analyze downstream KRAS signaling nodes (AKT, ERK, S6), transcription factors (STAT3, IκBα), protein marker (TBK1) and a marker of apoptosis (cleaved PARP). Treatment of mutant cell lines (NCI-H23, SW1573) were tested with an exemplary KRAS G12C inhibitor (compound I-272, 1 μM) alone or in combination with one of ruxolitinib (JAK 1/2 inhibitor, 1 and 5 μM) or momelotinib (JAK1/2, TBK1, IKKe inhibitor, 1 and 5 μM). […] Further, there is synergistic p-S6 inhibition in each of the combinations. Synergistic apoptosis strongly occurred when TBK1 and non-canonical NFκB signaling is inhibited.

Setting [5] is: compounds 48-246, measured at 2 h.
Where [6] appears, read: I-74 15 μM, PD0325901 100 nM, GDC0941 1 μM.
[7] abbreviates: 24 hours, G12C inhibitors 10 μM, GDC0941 2 μM (FIG. 2).

T1 sequence (P01116 1-169 isoform P01116-2 G12C): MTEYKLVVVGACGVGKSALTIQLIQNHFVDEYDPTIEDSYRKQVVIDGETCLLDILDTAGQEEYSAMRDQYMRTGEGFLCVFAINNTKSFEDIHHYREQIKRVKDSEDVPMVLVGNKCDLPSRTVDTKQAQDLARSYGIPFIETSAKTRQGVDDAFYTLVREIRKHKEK

As to `C=CC(=O)N1CCN(c2ncnc3cc(-c4ccccc4O)c(Cl)cc23)CC1` [Compound I-74, 1-(4-(6-chloro-7-(2-hydroxyphenyl)quinazolin-4-yl)piperazin-1-yl)prop-2-en-1-one], the Binding % result in assay [1] (setting [5]) is “+++ (+++indicates binding activity greater than 50% and up to 75%)”. Further, the “inhibition of downstream KRAS signaling nodes (Western blot)” value (from here on “inhibition”) in assay [2] (15 μM, 24 hours) is “clear and nearly complete inhibition of p-ERK, p-RSK, and p-S6”. Besides, in assay [2] (setting [6]), the “apoptosis based on cleaved PARP levels” value was “minimal cleaved PARP”. As to `C=CC(=O)N1CCN(c2ncnc3cc(-c4c(O)ccc5ccccc45)c(Cl)cc23)CC1` [Compound I-153, 1-(4-(6-chloro-7-(2-hydroxynaphthalen-1-yl)quinazolin-4-yl)piperazin-1-yl)prop-2-en-1-one], the Binding % result in assay [1] (setting [5]) is “++++ (++++indicates binding activity greater than 75%)”. In addition, the “apoptosis based on cleaved PARP levels” value in assay [2] (setting [7]) is on record as “minimal cleaved PARP”. Moreover, in assay [2] (24 hours, 10 μM (FIG. 2)), the “inhibition” value is “clear and nearly complete inhibition of p-ERK, p-RSK, and p-S6, with partial inhibition of p-AKT”.

For `C=CC(=O)N1CCN(c2ncnc3c(F)c(-c4ccccc4F)c(Cl)cc23)CC1` [Compound I-158, 1-(4-(6-chloro-8-fluoro-7-(2-fluorophenyl)quinazolin-4-yl)piperazin-1-yl)prop-2-en-1-one], the Binding % result in assay [1] (setting [5]) is recorded as “++++ (++++indicates binding activity greater than 75%)”. Further, the “apoptosis based on cleaved PARP levels” value in assay [2] (setting [7]) is reported as “minimal cleaved PARP”. In addition, the “inhibition” value in assay [2] (24 hours, 10 μM (FIG. 2)) was “clear and nearly complete inhibition of p-ERK, p-RSK, and p-S6, with partial inhibition of p-AKT”. As for `CS(=O)(=O)N1CCN(Cc2cc3nc(-c4cccc5[nH]ncc45)nc(N4CCOCC4)c3s2)CC1` [GDC0941, 2-(1H-indazol-4-yl)-6-(4-methanesulfonyl-piperazin-1-ylmethyl)-4-morpholin-4-yl-thieno[3,2-d]pyrimidine, reference compound], the “G1 arrest and induction of apoptosis” value in assay [2] is “G1 arrest with low to modest induction of apoptosis”. The “apoptosis based on c-caspase 3 levels” value in assay [2] (H358 cells (FIG. 11)) was “does not induce robust apoptosis”. Moreover, the “cell cycle arrest and induction of apoptosis (flow cytometry)” value in assay [3] is listed as “G1 arrest with low to modest induction of apoptosis”. As for `C=CC(=O)N1CC(N2CCN(C(=O)[C@@H](C)Nc3cc(C4CC4)c(Cl)cc3O)CC2)C1` [II-68, (R)-1-(3-(4-(2-(4-chloro-5-cyclopropyl-2-hydroxyphenylamino)-propanoyl)piperazin-1-yl)azetidin-1-yl)prop-2-en-1-one], the Binding % entry in assay [1] (determined at 2 hrs) is given as “++ (++indicates binding activity greater than 20%)”. The same measure, in the same setting: in the case of `C=CC(=O)N1CC(N2CCN(C(=O)[C@H](C)Nc3cc(CC)c(Cl)cc3O)CC2)C1` [II-69, (S)-1-(3-(4-(2-((4-Chloro-5-ethyl-2-hydroxyphenyl)amino)propanoyl)piperazin-1-yl)azetidin-1-yl)prop-2-en-1-one] it was “++ (++indicates binding activity greater than 20%)”; in that of `C=CC(=O)N1CC(N2CCN(C(=O)[C@@H](C)Nc3cc(CC)c(Cl)cc3O)CC2)C1` [II-70, (R)-1-(3-(4-(2-(4-chloro-5-ethyl-2-hydroxyphenylamino)-propanoyl)piperazin-1-yl)azetidin-1-yl)prop-2-en-1-one], “++ (++indicates binding activity greater than 20%)”; in that of `C=CC(=O)N1CC(N2CCN(C(=O)CNc3cc(C4CC4)c(Cl)cc3C#N)CC2)C1` [II-71, 2-((2-(4-(1-Acryloylazetidin-3-yl)piperazin-1-yl)-2-oxoethyl)amino)-5-chloro-4-cyclopropylbenzonitrile], “+ (+indicates binding activity from 5% to 20%)”. For the compound `C=CC(=O)N1CC(N2CCN(c3cc(-c4cc(CC)c(Cl)cc4O)n[nH]3)CC2)C1` [II-72, 1-(3-(4-(3-(4-chloro-5-ethyl-2-hydroxyphenyl)-1H-pyrazol-5-yl)piperazin-1-yl)azetidin-1-yl)prop-2-en-1-one], the Binding % entry in assay [1] (determined at 2 hrs) is “+ (+indicates binding activity from 5% to 20%)”. Still for that read-out and setting: in the case of `C=CC(=O)N1CC(N2CCN(C(=O)C3CCCN3c3cc(C4CC4)c(Cl)cc3OC)CC2)C1` (stereo not shown) [II-73, 1-(3-(4-(1-(4-chloro-5-cyclopropyl-2-methoxyphenyl)-pyrrolidine-2-carbonyl)piperazin-1-yl)azetidin-1-yl)prop-2-en-1-one] it was “+ (+indicates binding activity from 5% to 20%)”.

With `C=CC(=O)N1CC(N2CCN(C(=O)CNc3cc(CC)c(Cl)cn3)CC2)C1` [II-74, 1-(3-(4-(2-(5-chloro-4-ethylpyridin-2-ylamino)acetyl)-piperazin-1-yl)azetidin-1-yl)prop-2-en-1-one], in assay [1] (determined at 2 hrs), the Binding % entry is reported as “+ (+indicates binding activity from 5% to 20%)”. The “G1 arrest and induction of apoptosis” value in assay [2] was “G1 arrest with low to modest induction of apoptosis”. As for `C=CC(=O)N1CC(N2CCN(C(=O)Cn3ccc4c(Cl)c(Cl)cc(OC)c43)CC2)C1` [II-75, 1-(3-(4-(2-(4,5-dichloro-7-methoxy-1H-indol-1-yl)acetyl)piperazin-1-yl)azetidin-1-yl)prop-2-en-1-one], in assay [1] (determined at 2 hrs), the Binding % entry is recorded as “+ (+indicates binding activity from 5% to 20%)”. Consider `C=CC(=O)N1CCN(C(=O)c2cc(-c3cc(Cl)ccc3Cl)c(Cl)cc2OC)C(CO)C1` (stereo not shown) [III-7, 1-(3-(Hydroxymethyl)-4-(2′,5′,6-trichloro-4-methoxy-[1,1′-biphenyl]-3-carbonyl)piperazin-1-yl)prop-2-en-1-one], for which, in assay [1] (determined at 24 hrs), the Binding % entry was “+++ (+++indicates binding activity greater than 20% and up to 30%)”. The same measure, in the same setting: the result for `C=CC(=O)N1CCN(C(=O)c2cc(-c3ccc(Cl)cc3Cl)c[nH]2)CC1` [III-32, 1-(4-(4-(2,4-Dichlorophenyl)-1H-pyrrole-2-carbonyl)piperazin-1-yl)prop-2-en-1-one] reads “++++ (++++indicates binding activity greater than 30%)”. As to `C=CC(=O)N1CCN(C(=O)c2cc(-c3ccc(Cl)cc3)c(Cl)cc2O)CC1C#N` (stereo not shown) [III-37, 1-acryloyl-4-(4′,6-dichloro-4-hydroxybiphenylcarbonyl)piperazine-2-carbonitrile], the Binding % entry in assay [1] (determined at 2 hrs) is on record as “++ (++indicates binding activity greater than 20%)”. Same read-out and setting: the result for `C=CC(=O)N1CCN(C(=O)c2cc(Cl)c(-c3ccccc3)cc2O)CC1` [III-42, 1-(4-(2-Chloro-5-hydroxy-[1,1′-biphenyl]-4-carbonyl)piperazin-1-yl)prop-2-en-1-one] reads “+ (+indicates binding activity from 5% to 20%)”.

`O=C(NOC[C@H](O)CO)c1ccc(F)c(F)c1Nc1ccc(I)cc1F` [PD0325901]: in assay [2], the “G1 arrest and induction of apoptosis” value is recorded as “G1 arrest with low to modest induction of apoptosis”. In addition, the “apoptosis based on cleaved PARP levels” value in assay [2] (setting [6]) is listed as “does not induce robust apoptosis”.

Consider `N#CCNC(=O)c1ccc(-c2ccnc(Nc3ccc(N4CCOCC4)cc3)n2)cc1` [momelotinib, reference compound], for which the “apoptosis based on cleaved PARP levels” value in assay [4] is given as “does not induce robust apoptosis”.

Values taken from US10111874B2, “Combination therapies for treatment of cancer” (Araxes Pharma LLC, priority 2014, dated 2018).
